From PMC6366974, “The curcumin analog EF24 is a novel senolytic agent” (Aging (Albany NY), 2019)

Columns and labels:
HREC IR-SCs = experiment: Cell viability assay (flow cytometry, PI); assay type: cell-based; conditions: Homo sapiens, 72 h
cancer cells = test system: cancer cells; design: method as in PMID 15210154; conditions: more potent than curcumin; cited from earlier work
Bcl-xl = experiment: Western blotting of protein expression in WI-38 cells; assay type: cell-based, human; conditions: 72 h
Procedure: (§1) After treatment with vehicle or EF24 at 0.5, 1 and 2 µM for 72 h, WI-38 NCs or IR-SCs were harvested in 1.5mL microcentrifuge tubes, and lysed in RIPA buffer with EDTA and EGTA (Cat. No. BP-115DG, Boston BioProducts, Ashland, MA, USA) supplemented with 1% protease inhibitor cocktail (Cat. No. P8340, Sigma-Aldrich, St. Louis, MO, USA) and 1% phosphatase inhibitor cocktail (Cat. No. P0044, Sigma-Aldrich, St. Louis, MO, USA). An equal amount of protein (30 µg/lane) from each cell extract was resolved on a precast gel (Mini-PROTEAN TGX™, Cat. No. 456-1094, Bio-Rad, Hercules, CA, USA). Proteins were blotted to a precut 0.2 µm PVDF membrane (Invitrolon™, Cat. No. LC2002, Life Technologies, Carlsbad, CA, USA) by electrophoresis. The membranes were blocked with 1X TBS-Tween (TBST, Cat. No. J77500, Affymetrix, Santan Clara, CA, USA) containing 5% non-fat dry milk (Cat. No. sc-2324, Santa Cruz Biotechnology, Dallas, TX, USA), and subsequently probed with primary antibodies at a predetermined optimal concentration overnight at 4°C. The primary antibodies including Bcl-xl (Cat. No. 2762), Mcl-1 (Cat. No. 5453), and Bcl-2 (Cat. No. 2872) and β-actin (Cat. No. 4970) were purchased from Cell Signaling Technology (Danvers, MA, USA). After washing with TBST for 3 times (10 min each time), the membranes were incubated with the secondary horse radish peroxidase (HRP)-linked antibody (Cat. No. 7074, Cell Signaling Technology, Danvers, MA, USA) for 2 h at room temperature. Following sufficient washing with TBST, the membranes were incubated with chemiluminescent HRP substrate (Immobilon™ Western, Cat. No. P36599, MilliporeSigma, Billerica, MA, USA) that consists of equal volume of luminol reagent and peroxide solution. The blotting membranes were recorded using autoradiography (SRX-101, Konica, Shinjuku, Tokyo, Japan). For the proteasome inhibition experiment, IR-SCs were treated with vehicle (0.1% DMSO) or 1 µM MG132 (Cat. No. S2619, Selleckchem, Houston, TX, USA) for 1 h prior to the incubation with EF24 at 0, 0.5, 1 and 2 µM for 72h.

Mcl-1 = experiment: as above; assay type: cell-based, human; conditions: WI-38 IR-SCs, 0.5, 1 and 2 µM, 72 h
Procedure: as §1

Bcl-2 = experiment: as above; assay type: cell-based, human; conditions: WI-38 IR-SCs, 0.5, 1 and 2 µM, 72 h; did not reach statistical significance
Procedure: as §1

[1] = test system: BCL-XL, MCL-1 and BCL-2 mRNA; experiment: qPCR of mRNA levels in WI-38 cells; assay type: cell-based, human; conditions: WI-38 NCs and IR-SCs, 72 h
Procedure: The mRNA levels were measured with qPCR, as previously described. qPCR was run with TaqMan qPCR (Cat. No. 4444965, Thermo Fisher Scientific, Waltham, MA, USA) reagents and primers (Cat. No. 4331182, Thermo Fisher Scientific, Waltham, MA, USA).

WI-38 IR-SCs [2] = experiment: Apoptosis analysis (Annexin-V/PI flow cytometry); assay type: cell-based, human; conditions: 2 µM, 72 h
Procedure: (§2) WI-38 NCs and SCs were treated with vehicle or 10 µM Q-VD-OPh (QVD, Cat. No. S7311, Selleckchem, Houston, TX, USA) for 4 h prior to the addition of vehicle or 2 µM EF24 for 72 h. The suspending cells were first harvested from the culture and then pooled with the adherent cells detached by 0.25% Trypsin-EDTA at 37°C for 5 min in 12 × 75 mm polystyrene round-bottom tubes (Cat. No. 352058, Falcon, Corning, NY, USA) containing complete DMEM medium. The cells were stained with Alexa Fluor 647-Annexin V (1: 50, Cat. No. 640912, BioLegend, San Diego, CA, USA) and PI (10 µg/mL, Cat. No. 421301, BioLegend, San Diego, CA, USA) at room temperature for 30 min. The stained cells were analyzed using a BD LSR II flow cytometer.

WI-38 NCs [3] = experiment: Apoptosis analysis (Annexin-V/PI flow cytometry); assay type: cell-based, human; conditions: 2 µM, 72 h
Procedure: as §2

WI-38 IR-SCs [4] = experiment: ROS measurement (DHR staining, flow cytometry); assay type: cell-based, human; conditions: 2 µM, 3 h and 6 h, DHR MFI
Procedure: (§3) WI-38 NCs and IR-SCs were incubated with vehicle or 2 µM EF24 for 3, 6, 24, or 72 h. After removal of suspension cells, adherent cells were detached using 0.25% Trypsin-EDTA at 37°C for 5 min. They were rinsed with DMEM once and then incubated with pre-warmed DMEM medium containing 1 µM dihydrorhodamine 123 (DHR, Cat. No. D23806, Thermo Fisher Scientific, Waltham, MA, USA) at 37°C for 30 min in dark. After washing in 4 mL DMEM with 100 ng/mL PI, cells were centrifuged immediately at 1,000 r.p.m. for 5 min to remove PI and re-suspended in DMEM medium for flow cytometry analysis. Mean fluorescence intensity (MFI) of PI negative cells was determined using the BD LSR II flow cytometer.

WI-38 NCs [5] = experiment: ROS measurement (DHR staining, flow cytometry); assay type: cell-based, human; conditions: 2 µM, 3 h and 6 h, DHR MFI
Procedure: as §3

O=C1/C(=C/c2ccccc2F)CNC/C1=C\c1ccccc1F [EF24]
EC50 (HREC IR-SCs): 1150 nM | potency in inducing cancer cell death relative to curcumin (cancer cells): 10 fold | expression of Bcl-xl in IR-SCs (Bcl-xl; WI-38 IR-SCs, 0.5, 1 and 2 µM): significantly reduce | expression of Bcl-xl in NCs (Bcl-xl; WI-38 NCs, 0.5, 1 and 2 µM): not in NCs | expression of Mcl-1 in IR-SCs (Mcl-1): significantly reduce | levels of Bcl-2 in IR-SCs (Bcl-2): slightly reduced | BCL-XL, MCL-1 and BCL-2 mRNA levels [1]: did not observe any significant changes | number of PI positive cells representing necrotic cells in IR-SCs (WI-38 IR-SCs [2]): not any significant changes | number and percentage of Annexin-V positive apoptotic cells in IR-SCs (WI-38 IR-SCs [2]; compared to vehicle): significantly increased | induction of apoptosis in NCs (WI-38 NCs [3]): did not induce apoptosis | ROS production in IR-SCs (WI-38 IR-SCs [4]): did not increase ROS production | ROS production in NCs (WI-38 NCs [5]): did not increase ROS production
